Laboratory results: publication PMC3961306, “Comparison of the Cancer Gene Targeting and Biochemical Selectivities of All Targeted Kinase Inhibitors Approved for Clinical Use” (PLoS ONE, 2014)

What was measured:
Assay in all cases: Kinase profiling in a biochemical assay panel (mobility shift assays and ELISA), %-inhibition at 1 μM; selectivity entropy
[1] = biological target: panel of more than 300 wild-type and mutant kinases (313 kinase panel) (Homo sapiens, UniProt P08581)
[2] = biological target: panel of more than 300 wild-type and mutant kinases (313 kinase panel) (Homo sapiens, UniProt P16591)
[3] = biological target: T1, panel of more than 300 wild-type and mutant kinases (313 kinase panel) (Homo sapiens, UniProt Q15831)
T1 sequence (Q15831 1-433): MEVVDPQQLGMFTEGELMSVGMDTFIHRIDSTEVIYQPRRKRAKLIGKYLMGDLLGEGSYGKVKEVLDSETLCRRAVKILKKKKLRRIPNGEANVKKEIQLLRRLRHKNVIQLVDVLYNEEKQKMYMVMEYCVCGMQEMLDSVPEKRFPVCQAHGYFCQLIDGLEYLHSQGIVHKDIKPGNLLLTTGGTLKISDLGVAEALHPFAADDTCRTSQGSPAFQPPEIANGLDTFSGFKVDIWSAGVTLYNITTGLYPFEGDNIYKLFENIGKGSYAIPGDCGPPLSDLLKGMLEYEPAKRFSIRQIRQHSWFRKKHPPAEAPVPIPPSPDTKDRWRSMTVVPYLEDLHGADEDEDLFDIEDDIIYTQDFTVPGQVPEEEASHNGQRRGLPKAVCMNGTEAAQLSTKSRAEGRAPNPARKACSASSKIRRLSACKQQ

[4] = biological target: T2, panel of more than 300 wild-type and mutant kinases (313 kinase panel) (Homo sapiens, UniProt Q9HBY8)
T2 sequence (Q9HBY8 1-367): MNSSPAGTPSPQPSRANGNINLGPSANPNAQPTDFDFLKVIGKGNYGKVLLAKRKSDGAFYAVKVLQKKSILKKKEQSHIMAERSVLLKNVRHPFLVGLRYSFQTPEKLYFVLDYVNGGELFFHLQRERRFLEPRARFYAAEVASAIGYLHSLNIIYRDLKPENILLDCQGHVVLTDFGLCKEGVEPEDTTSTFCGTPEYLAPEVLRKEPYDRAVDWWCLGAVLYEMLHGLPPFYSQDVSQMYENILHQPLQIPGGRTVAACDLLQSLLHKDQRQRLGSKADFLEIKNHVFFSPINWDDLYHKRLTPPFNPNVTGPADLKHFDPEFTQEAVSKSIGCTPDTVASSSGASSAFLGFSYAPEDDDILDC

[5] = biological target: panel of more than 300 wild-type and mutant kinases (313 kinase panel) (Homo sapiens, UniProt P10721, V654A)
[6] = biological target: panel of more than 300 wild-type and mutant kinases (313 kinase panel) (Homo sapiens, UniProt P41240)
[7] = biological target: panel of more than 300 wild-type and mutant kinases (313 kinase panel) (Homo sapiens, UniProt Q16644)
[8] = biological target: panel of more than 300 wild-type and mutant kinases (313 kinase panel) (Homo sapiens, UniProt P10721, V560G)
[9] = biological target: panel of more than 300 wild-type and mutant kinases (313 kinase panel) (Homo sapiens, UniProt P36507)
[10] = biological target: T3, panel of more than 300 wild-type and mutant kinases (313 kinase panel) (Homo sapiens, UniProt Q13188)
T3 sequence (Q13188 1-491): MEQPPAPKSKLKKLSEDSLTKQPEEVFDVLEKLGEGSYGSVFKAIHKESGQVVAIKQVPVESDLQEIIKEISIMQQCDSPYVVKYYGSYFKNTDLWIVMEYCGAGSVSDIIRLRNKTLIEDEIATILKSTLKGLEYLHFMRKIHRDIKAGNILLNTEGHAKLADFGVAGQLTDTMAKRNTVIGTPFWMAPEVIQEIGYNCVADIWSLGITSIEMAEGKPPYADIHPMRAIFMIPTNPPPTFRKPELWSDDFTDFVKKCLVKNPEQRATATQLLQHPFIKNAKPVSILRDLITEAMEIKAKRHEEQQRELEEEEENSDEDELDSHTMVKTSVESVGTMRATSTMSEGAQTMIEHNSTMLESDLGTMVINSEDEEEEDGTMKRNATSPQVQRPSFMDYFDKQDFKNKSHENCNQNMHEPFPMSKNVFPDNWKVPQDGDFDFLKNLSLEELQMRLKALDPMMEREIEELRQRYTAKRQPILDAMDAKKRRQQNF

[11] = kinase KIT(V654A), compound at 1 μM
[12] = kinase MAPKAPK3, compound at 1 μM
[13] = kinase KIT(V560G), compound at 1 μM
[14] = kinase MAP2K2, compound at 1 μM

Chain of panel of more than 300 wild-type and mutant kinases (313 kinase panel) (Homo sapiens, UniProt P41240) (P41240 whole entry, change not shown): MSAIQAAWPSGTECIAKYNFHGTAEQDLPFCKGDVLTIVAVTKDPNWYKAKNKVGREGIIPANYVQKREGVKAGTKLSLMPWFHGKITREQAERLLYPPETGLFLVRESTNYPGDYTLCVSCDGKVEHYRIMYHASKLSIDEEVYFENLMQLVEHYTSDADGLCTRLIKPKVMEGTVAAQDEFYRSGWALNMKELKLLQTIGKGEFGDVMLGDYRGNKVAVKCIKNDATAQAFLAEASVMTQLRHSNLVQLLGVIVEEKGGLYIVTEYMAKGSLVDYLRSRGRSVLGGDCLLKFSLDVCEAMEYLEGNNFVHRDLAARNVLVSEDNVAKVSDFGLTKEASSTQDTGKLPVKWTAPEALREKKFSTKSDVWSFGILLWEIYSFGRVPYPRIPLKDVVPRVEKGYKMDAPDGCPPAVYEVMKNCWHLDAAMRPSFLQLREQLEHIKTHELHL
Chain of panel of more than 300 wild-type and mutant kinases (313 kinase panel) (Homo sapiens, UniProt P16591) (P16591 whole entry, change not shown): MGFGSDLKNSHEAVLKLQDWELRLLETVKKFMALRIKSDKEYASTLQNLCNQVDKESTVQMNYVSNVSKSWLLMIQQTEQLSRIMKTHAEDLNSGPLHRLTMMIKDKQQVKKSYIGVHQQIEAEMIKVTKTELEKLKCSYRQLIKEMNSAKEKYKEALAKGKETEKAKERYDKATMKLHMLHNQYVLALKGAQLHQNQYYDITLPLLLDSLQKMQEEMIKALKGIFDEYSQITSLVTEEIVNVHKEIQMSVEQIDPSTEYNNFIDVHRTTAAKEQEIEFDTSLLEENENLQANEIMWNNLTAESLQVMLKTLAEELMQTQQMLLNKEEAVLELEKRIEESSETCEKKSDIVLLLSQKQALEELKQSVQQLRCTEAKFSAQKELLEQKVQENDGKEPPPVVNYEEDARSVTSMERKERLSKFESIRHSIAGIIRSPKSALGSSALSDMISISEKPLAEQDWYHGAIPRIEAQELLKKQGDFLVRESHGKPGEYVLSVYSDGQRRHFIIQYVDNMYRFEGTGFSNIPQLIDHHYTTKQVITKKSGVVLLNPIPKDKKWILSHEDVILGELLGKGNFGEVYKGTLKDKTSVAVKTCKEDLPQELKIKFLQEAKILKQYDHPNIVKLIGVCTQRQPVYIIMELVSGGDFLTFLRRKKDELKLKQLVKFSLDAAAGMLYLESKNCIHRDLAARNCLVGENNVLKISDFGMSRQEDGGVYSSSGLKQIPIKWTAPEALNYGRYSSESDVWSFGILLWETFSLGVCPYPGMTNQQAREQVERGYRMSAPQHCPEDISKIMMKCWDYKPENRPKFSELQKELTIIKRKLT
Chain of panel of more than 300 wild-type and mutant kinases (313 kinase panel) (Homo sapiens, UniProt P10721, V654A) (P10721 26-976 V654A): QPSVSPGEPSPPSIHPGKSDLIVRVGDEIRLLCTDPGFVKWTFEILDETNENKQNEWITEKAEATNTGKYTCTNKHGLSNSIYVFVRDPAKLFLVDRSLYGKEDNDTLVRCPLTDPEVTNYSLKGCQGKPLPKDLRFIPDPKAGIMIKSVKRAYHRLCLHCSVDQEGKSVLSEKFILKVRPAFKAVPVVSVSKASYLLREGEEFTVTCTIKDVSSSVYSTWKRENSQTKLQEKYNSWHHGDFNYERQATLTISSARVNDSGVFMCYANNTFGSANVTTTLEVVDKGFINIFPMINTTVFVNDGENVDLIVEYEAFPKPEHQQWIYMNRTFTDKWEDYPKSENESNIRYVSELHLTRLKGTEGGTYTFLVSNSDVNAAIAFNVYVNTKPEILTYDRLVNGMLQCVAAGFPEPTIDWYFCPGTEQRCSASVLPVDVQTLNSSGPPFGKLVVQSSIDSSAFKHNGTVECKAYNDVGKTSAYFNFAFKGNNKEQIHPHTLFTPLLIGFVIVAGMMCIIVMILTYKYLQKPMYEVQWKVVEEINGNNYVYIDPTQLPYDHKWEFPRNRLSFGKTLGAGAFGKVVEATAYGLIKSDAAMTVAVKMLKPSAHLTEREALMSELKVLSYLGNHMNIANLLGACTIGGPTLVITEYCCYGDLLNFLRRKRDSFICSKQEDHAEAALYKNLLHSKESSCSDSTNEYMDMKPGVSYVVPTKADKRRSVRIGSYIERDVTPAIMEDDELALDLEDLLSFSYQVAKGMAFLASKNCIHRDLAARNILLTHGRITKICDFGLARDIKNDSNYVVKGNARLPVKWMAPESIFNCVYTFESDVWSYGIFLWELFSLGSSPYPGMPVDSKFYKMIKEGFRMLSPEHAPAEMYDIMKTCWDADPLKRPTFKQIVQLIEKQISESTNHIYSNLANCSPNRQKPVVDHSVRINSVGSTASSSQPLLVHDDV
Chain of panel of more than 300 wild-type and mutant kinases (313 kinase panel) (Homo sapiens, UniProt P10721, V560G) (P10721 26-976 V560G): as the sequence (P10721 26-976 V654A) above, with V535G, A629V counted along it
Chain of panel of more than 300 wild-type and mutant kinases (313 kinase panel) (Homo sapiens, UniProt Q16644) (Q16644 whole entry, stated change not applied): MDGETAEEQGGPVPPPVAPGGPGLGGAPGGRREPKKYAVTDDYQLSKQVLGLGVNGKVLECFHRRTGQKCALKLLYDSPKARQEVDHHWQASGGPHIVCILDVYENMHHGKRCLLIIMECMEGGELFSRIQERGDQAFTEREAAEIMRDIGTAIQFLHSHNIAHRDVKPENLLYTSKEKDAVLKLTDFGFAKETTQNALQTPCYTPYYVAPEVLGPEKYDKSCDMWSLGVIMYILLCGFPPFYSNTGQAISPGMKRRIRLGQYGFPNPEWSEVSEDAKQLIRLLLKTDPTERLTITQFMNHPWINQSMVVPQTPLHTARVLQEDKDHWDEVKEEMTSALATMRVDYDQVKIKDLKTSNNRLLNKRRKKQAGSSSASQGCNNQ

SMILES | %-inhibition of MET ([1]; kinase MET, compound at 1 μM) [%] | %-inhibition of FER ([2]; kinase FER, compound at 1 μM) [%] | %-inhibition of LKB1 ([3]; kinase LKB1, compound at 1 μM) [%] | %-inhibition of SGK2 ([4]; kinase SGK2, 1 μM) [%] | %-inhibition of KIT(V654A) [5, 11] [%] | %-inhibition of CSK ([6]; kinase CSK, compound at 1 μM) [%] | %-inhibition of MAPKAPK3 [7, 12] [%] | %-inhibition of KIT(V560G) [8, 13] [%] | %-inhibition of MAP2K2 ([9]; 1 µM) [%] | %-inhibition of MAP2K2 [9, 14] [%] | %-inhibition of MST2 ([10]; kinase MST2, 1 μM) [%] | %-inhibition of MET ([1]; 1 µM) [%] | %-inhibition of KIT(V560G) ([8]; 1 µM) [%] | %-inhibition of KIT(V654A) ([5]; 1 µM) [%] | %-inhibition of FER ([2]; 1 µM) [%] | %-inhibition of MST2 ([10]; 1 µM) [%] | %-inhibition of LKB1 ([3]; 1 µM) [%] | %-inhibition of MAPKAPK3 ([7]; 1 µM) [%] | %-inhibition of SGK2 ([4]; 1 µM) [%] | %-inhibition of CSK ([6]; 1 µM) [%]
Cc1ccc(C(=O)Nc2ccc(CN3CCN(C)CC3)c(C(F)(F)F)c2)cc1C#Cc1cnc2cccnn12 [ponatinib] | 17 | 89 | -12 | 12 |  |  |  |  |  |  |  |  |  |  |  |  |  |  |  | 
CC(C)(C)c1nc(-c2cccc(NS(=O)(=O)c3c(F)cccc3F)c2F)c(-c2ccnc(N)n2)s1 [dabrafenib] | 27 | 22 | 4.34 | -7.58 | -3.17 | 98 | -11 |  |  |  |  |  |  |  |  |  |  |  |  | 
COc1cc(Nc2c(C#N)cnc3cc(OCCCN4CCN(C)CC4)c(OC)cc23)c(Cl)cc1Cl [bosutinib] | 10 | 89 | -5.27 | -3.37 | 8 | 84 | -12 | 7 | 96 |  |  |  |  |  |  |  |  |  |  | 
Cc1nc(Nc2ncc(C(=O)Nc3c(C)cccc3Cl)s2)cc(N2CCN(CCO)CC2)n1 [dasatinib] |  |  | 0.734 | 6 |  |  |  |  |  |  |  |  |  |  |  |  |  |  |  | 
CO[C@H]1C[C@@H]2CC[C@@H](C)[C@@](O)(O2)C(=O)C(=O)N2CCCC[C@H]2C(=O)O[C@H]([C@H](C)C[C@@H]2CC[C@@H](OC(=O)C(C)(CO)CO)[C@H](OC)C2)CC(=O)[C@H](C)/C=C(\C)[C@@H](O)[C@@H](OC)C(=O)[C@H](C)C[C@H](C)/C=C/C=C/C=C/1C [temsirolimus] | -4.57 | -4 | -6.57 | -2.66 | -4.65 | -1.56 | -11 | -5 |  | 13 | -3.41 |  |  |  |  |  |  |  |  | 
C#Cc1cccc(Nc2ncnc3cc(OCCOC)c(OCCOC)cc23)c1 [erlotinib] |  |  |  |  |  |  |  |  | 8 |  |  | 13 | 17 | 1.65 | 4.42 | 7 | 2 | 0.621 | 10 | 
CCCS(=O)(=O)Nc1ccc(F)c(C(=O)c2c[nH]c3ncc(-c4ccc(Cl)cc4)cc23)c1F [vemurafenib] | 3.67 | 11 | 1.13 | 2.66 | -1.8 | 76 | 12 | 32 |  | 30 | 24 |  |  |  |  |  |  |  |  | 
CC(=O)Nc1cccc(-n2c(=O)n(C3CC3)c(=O)c3c(Nc4ccc(I)cc4F)n(C)c(=O)c(C)c32)c1 [trametinib] | -2.41 | 4.28 | 2.38 | -7 | -1.62 | -2.83 | -9 | 1 |  |  | -3 |  |  |  |  |  |  |  |  | 
COc1cc2c(Nc3ccc(Br)cc3F)ncnc2cc1OCC1CCN(C)CC1 [vandetanib] |  | 2.48 | -4.54 | -2 |  | 68 | -2 |  |  |  | -4 |  |  |  |  |  |  |  |  | 
CS(=O)(=O)CCNCc1ccc(-c2ccc3ncnc(Nc4ccc(OCc5cccc(F)c5)c(Cl)c4)c3c2)o1 [lapatinib] | 0 | 3 | 4 | 1.81 |  |  | -3.64 |  |  | 6 |  |  | 2.33 |  |  | -0.701 |  |  |  | 1.88
CCN(CC)CCNC(=O)c1c(C)[nH]c(/C=C2\C(=O)Nc3ccc(F)cc32)c1C [sunitinib] |  |  | 11 |  |  |  |  |  |  |  |  |  |  |  |  |  |  |  |  | 
CNC(=O)c1cc(Oc2ccc(NC(=O)Nc3ccc(Cl)c(C(F)(F)F)c3)c(F)c2)ccn1 [regorafenib] | 2.12 | -2 | -5 | 1 |  | 28 | -15 | 99 |  | 16 | -6.39 |  |  |  |  |  |  |  |  | 
C[C@@H](Oc1cc(-c2cnn(C3CCNCC3)c2)cnc1N)c1c(Cl)ccc(F)c1Cl [crizotinib] |  |  | -1.39 | -2.31 | -3.75 | 9 | -13 | 0.851 |  | 13 | 13 |  |  |  |  |  |  |  |  | 
Cc1cn(-c2cc(NC(=O)c3ccc(C)c(Nc4nccc(-c5cccnc5)n4)c3)cc(C(F)(F)F)c2)cn1 [nilotinib] | -9 | -19 |  | 24 |  |  | 2 |  |  | -12 | -8 |  |  | 19 |  |  | -6 |  |  | 78
Cc1ccc(Nc2nccc(N(C)c3ccc4c(C)n(C)nc4c3)n2)cc1S(N)(=O)=O [pazopanib] |  | 81 | 28 | -3.44 | 87 | 12 | -6 |  |  | 1.87 | 2 |  |  |  |  |  |  |  |  | 
COc1cc2nccc(Oc3ccc(NC(=O)C4(C(=O)Nc5ccc(F)cc5)CC4)cc3)c2cc1OC [cabozantinib] |  |  | -3.17 | -1.48 | 97 | 60 | -9 | 96 |  | 61 | -0.31 |  |  |  |  |  |  |  |  | 
